Test results from ChEMBL document CHEMBL5465560, “Selectivity Literature for EUbOPEN Chemogenomic Library” (2024).

Columns and labels:
[1] = target: Rho-associated protein kinase 2 (Homo sapiens, UniProt O75116); experiment: Selectivity interaction (KinomeScan (DiscoverX)) EUB0000666a ROCK2; details: at 10 µM
[2] = target: cAMP-dependent protein kinase catalytic subunit alpha (Homo sapiens, UniProt P17612); experiment: Selectivity interaction (KinomeScan (DiscoverX)) EUB0000607a PRKACA; details: at 10 µM
[3] = system: Tyrosine-protein kinase ABL1 (Homo sapiens), P00519 [H396P]; details: at 10 µM
[4] = target: Mitogen-activated protein kinase 14 (Homo sapiens, UniProt Q16539); experiment: Selectivity interaction (ActivX KiNativ screen (kinase selectivity in THP-1 cell lysates)) EUB0000639a MAPK14; type: subcellular; details: lysate, at 0.2 µM
[5] = target: T1, Cyclin-dependent kinase 11A (Homo sapiens) (UniProt Q9UQ88); experiment: Selectivity interaction (ActivX KiNativ screen (kinase selectivity in THP-1 cell lysates)) EUB0000639a CDK11A; type: subcellular; details: lysate, at 0.2 µM
T1 sequence (whole entry): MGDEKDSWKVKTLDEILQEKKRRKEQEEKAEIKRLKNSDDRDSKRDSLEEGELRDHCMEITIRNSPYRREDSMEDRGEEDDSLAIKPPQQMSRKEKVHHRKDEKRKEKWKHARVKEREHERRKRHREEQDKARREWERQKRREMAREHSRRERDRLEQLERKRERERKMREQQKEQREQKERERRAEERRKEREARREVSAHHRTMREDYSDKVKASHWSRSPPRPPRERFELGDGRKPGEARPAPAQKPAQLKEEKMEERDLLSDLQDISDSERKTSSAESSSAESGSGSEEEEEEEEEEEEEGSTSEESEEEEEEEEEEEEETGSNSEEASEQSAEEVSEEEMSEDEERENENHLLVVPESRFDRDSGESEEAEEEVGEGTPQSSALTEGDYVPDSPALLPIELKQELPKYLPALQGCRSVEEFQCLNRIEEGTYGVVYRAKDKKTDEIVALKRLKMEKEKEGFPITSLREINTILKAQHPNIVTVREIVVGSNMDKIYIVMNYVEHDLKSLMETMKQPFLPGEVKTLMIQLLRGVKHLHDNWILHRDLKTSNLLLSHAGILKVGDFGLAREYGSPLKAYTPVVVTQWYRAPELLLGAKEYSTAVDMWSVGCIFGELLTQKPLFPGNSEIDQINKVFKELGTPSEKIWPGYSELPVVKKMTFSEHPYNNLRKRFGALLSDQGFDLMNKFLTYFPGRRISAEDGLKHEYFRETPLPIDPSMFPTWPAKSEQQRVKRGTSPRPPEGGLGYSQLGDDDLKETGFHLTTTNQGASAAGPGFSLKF

[6] = target: Fibroblast growth factor receptor 3 (Homo sapiens, UniProt P22607); experiment: Selectivity interaction (ProQinase) EUB0000171b FGFR3; details: at 1 µM
[7] = target: T2, Serine/threonine-protein kinase DCLK2 (Homo sapiens) (UniProt Q8N568); experiment: Selectivity interaction (Kinase screening (Nanosyn)) EUB0000604a DCLK2
T2 sequence (whole entry): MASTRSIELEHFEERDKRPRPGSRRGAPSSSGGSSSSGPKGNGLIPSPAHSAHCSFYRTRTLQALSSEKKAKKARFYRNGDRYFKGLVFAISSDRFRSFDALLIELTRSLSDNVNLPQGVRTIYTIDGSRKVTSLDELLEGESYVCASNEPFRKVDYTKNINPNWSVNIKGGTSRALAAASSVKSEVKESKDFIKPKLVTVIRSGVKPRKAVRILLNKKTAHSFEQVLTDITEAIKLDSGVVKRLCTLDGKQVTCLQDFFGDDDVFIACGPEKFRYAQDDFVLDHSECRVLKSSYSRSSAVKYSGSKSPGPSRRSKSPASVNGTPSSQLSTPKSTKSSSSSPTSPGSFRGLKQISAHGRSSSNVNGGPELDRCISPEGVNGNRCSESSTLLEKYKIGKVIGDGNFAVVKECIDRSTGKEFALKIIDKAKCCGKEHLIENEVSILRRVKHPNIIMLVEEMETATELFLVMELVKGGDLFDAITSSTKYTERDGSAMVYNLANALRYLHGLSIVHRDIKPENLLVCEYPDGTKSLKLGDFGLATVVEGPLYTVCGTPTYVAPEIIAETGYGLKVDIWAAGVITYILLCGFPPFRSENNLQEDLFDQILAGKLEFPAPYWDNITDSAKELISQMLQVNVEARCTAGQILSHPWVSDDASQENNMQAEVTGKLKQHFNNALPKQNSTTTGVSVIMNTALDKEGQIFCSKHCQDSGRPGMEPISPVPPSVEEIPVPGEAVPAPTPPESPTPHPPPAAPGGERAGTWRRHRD

[8] = target: T3, Serine/threonine-protein kinase D1 (Homo sapiens) (UniProt Q15139); experiment: Selectivity interaction (KinomeScan (DiscoverX)) EUB0000229b PRKD1; details: at 10 µM
T3 sequence (whole entry): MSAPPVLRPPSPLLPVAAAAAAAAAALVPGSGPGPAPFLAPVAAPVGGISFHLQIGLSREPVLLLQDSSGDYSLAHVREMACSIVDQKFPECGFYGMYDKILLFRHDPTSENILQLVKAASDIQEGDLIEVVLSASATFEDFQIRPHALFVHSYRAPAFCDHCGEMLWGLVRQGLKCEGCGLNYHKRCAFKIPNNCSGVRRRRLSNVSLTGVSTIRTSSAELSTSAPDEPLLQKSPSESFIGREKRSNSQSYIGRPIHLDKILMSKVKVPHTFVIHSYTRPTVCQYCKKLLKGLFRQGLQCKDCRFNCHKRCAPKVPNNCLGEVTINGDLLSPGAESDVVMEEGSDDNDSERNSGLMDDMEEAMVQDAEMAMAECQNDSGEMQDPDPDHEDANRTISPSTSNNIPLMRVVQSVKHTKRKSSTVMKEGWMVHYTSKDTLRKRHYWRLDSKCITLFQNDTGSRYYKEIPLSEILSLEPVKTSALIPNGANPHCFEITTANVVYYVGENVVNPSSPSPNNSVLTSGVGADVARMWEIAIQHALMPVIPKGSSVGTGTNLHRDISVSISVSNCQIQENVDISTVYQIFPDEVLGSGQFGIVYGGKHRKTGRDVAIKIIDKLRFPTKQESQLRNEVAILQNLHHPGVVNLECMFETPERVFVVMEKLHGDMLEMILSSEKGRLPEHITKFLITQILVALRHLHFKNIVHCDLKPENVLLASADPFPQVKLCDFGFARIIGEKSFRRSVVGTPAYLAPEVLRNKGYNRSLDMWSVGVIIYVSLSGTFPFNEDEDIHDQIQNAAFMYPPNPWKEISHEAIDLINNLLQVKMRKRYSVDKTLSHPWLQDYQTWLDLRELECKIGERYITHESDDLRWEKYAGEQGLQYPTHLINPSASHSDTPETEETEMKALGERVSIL

[9] = target: Myosin-IIIa (Homo sapiens) (UniProt Q8NEV4); experiment: Selectivity interaction (KinomeScan (DiscoverX)) EUB0000092b MYO3A; details: at 10 µM
[10] = target: Ephrin type-A receptor 7 (Homo sapiens) (UniProt Q15375); experiment: Selectivity interaction (KinomeScan (DiscoverX)) EUB0001619a EPHA7; details: at 1 µM
Sequence of Ephrin type-A receptor 7 (Homo sapiens) (Q15375 28-998 limits assumed): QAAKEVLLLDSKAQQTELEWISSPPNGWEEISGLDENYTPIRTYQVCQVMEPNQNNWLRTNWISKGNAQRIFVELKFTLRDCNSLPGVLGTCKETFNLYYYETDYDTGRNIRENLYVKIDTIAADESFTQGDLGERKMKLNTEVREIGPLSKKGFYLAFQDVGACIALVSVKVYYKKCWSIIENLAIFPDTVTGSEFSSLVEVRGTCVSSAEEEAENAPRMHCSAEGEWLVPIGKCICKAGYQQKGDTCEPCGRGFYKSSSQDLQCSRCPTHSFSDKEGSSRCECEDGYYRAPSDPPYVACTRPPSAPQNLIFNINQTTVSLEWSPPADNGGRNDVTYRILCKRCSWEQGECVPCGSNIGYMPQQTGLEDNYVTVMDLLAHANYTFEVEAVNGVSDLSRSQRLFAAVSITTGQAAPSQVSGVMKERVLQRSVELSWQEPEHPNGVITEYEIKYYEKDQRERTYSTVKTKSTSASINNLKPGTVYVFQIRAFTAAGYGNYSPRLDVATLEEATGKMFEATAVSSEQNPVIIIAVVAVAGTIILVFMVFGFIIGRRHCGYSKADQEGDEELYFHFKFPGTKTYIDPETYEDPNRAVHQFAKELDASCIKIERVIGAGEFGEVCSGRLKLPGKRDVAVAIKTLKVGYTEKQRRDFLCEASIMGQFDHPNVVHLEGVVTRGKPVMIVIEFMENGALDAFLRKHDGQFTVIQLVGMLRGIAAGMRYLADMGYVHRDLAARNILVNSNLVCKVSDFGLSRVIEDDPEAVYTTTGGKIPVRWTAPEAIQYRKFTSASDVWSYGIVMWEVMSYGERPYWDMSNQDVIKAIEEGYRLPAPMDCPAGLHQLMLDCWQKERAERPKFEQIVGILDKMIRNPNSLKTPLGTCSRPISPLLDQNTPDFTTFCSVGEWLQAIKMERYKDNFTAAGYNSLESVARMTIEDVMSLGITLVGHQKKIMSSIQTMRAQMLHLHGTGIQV

Sequence of Mitogen-activated protein kinase 14 (Q16539 whole entry): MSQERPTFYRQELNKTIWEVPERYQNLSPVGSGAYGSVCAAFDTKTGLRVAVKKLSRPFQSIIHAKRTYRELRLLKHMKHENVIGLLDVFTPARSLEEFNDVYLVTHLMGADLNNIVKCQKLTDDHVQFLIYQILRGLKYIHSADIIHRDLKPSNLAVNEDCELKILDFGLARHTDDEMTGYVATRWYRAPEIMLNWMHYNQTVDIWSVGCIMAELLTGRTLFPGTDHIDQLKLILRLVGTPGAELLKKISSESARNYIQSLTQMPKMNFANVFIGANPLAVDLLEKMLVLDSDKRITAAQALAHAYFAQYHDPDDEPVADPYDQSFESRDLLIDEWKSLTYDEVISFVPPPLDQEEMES
Sequence of Fibroblast growth factor receptor 3 (P22607 23-806 limits assumed): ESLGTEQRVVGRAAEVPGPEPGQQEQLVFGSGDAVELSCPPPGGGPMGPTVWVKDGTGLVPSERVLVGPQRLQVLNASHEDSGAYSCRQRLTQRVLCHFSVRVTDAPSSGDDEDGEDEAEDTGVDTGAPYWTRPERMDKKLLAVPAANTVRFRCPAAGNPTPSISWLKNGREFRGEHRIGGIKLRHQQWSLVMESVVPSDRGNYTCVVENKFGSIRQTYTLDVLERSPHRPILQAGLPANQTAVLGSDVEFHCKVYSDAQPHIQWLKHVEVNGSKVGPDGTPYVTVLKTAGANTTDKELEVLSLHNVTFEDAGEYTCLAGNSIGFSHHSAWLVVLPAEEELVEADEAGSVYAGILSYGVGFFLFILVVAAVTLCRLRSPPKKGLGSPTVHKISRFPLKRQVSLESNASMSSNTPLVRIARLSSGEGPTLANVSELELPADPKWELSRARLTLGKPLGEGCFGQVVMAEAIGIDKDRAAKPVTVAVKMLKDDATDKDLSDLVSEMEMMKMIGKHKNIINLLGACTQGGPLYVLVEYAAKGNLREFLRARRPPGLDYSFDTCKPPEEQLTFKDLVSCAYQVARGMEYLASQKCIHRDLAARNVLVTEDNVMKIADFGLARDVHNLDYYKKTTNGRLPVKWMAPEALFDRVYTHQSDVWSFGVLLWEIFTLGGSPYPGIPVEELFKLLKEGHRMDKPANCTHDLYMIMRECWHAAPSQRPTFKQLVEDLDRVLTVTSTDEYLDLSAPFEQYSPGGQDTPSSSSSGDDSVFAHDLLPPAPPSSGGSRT
Sequence of Rho-associated protein kinase 2 (O75116 whole entry, looked up): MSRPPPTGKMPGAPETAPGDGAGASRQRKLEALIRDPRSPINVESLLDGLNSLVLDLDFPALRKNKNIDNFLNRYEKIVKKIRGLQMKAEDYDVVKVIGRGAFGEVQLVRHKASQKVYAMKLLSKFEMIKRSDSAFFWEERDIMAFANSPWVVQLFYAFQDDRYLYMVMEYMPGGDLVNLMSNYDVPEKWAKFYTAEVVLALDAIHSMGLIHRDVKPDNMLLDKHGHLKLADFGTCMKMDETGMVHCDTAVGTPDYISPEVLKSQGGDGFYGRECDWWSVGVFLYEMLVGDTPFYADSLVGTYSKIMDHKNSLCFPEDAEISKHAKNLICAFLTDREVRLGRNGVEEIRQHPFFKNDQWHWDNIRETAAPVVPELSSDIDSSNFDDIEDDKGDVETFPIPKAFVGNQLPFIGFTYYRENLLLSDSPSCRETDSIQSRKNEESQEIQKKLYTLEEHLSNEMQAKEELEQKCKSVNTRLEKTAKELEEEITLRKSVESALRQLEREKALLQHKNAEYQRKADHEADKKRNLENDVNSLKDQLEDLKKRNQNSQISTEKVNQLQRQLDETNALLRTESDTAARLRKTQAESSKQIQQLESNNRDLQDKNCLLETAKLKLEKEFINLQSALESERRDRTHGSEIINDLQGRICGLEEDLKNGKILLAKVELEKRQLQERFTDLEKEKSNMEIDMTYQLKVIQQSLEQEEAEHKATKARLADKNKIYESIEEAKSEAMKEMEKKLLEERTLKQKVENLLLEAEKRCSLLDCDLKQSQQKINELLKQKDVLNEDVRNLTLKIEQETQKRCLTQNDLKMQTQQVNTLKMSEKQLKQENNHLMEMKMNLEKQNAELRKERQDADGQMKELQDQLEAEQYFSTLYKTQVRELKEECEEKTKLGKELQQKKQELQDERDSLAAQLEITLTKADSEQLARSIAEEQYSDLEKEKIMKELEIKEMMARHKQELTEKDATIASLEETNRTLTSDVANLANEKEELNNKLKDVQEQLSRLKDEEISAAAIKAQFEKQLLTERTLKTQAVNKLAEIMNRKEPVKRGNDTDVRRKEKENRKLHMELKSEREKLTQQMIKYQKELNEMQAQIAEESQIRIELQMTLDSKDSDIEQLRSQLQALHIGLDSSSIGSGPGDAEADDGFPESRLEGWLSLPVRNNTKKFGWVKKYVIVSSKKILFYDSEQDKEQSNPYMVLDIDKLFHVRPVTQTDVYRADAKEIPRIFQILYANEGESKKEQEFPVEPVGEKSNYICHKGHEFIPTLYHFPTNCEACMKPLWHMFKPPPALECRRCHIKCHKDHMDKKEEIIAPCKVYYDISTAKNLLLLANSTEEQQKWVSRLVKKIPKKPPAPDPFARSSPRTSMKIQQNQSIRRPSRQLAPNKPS
Sequence of Myosin-IIIa (Homo sapiens) (Q8NEV4 whole entry): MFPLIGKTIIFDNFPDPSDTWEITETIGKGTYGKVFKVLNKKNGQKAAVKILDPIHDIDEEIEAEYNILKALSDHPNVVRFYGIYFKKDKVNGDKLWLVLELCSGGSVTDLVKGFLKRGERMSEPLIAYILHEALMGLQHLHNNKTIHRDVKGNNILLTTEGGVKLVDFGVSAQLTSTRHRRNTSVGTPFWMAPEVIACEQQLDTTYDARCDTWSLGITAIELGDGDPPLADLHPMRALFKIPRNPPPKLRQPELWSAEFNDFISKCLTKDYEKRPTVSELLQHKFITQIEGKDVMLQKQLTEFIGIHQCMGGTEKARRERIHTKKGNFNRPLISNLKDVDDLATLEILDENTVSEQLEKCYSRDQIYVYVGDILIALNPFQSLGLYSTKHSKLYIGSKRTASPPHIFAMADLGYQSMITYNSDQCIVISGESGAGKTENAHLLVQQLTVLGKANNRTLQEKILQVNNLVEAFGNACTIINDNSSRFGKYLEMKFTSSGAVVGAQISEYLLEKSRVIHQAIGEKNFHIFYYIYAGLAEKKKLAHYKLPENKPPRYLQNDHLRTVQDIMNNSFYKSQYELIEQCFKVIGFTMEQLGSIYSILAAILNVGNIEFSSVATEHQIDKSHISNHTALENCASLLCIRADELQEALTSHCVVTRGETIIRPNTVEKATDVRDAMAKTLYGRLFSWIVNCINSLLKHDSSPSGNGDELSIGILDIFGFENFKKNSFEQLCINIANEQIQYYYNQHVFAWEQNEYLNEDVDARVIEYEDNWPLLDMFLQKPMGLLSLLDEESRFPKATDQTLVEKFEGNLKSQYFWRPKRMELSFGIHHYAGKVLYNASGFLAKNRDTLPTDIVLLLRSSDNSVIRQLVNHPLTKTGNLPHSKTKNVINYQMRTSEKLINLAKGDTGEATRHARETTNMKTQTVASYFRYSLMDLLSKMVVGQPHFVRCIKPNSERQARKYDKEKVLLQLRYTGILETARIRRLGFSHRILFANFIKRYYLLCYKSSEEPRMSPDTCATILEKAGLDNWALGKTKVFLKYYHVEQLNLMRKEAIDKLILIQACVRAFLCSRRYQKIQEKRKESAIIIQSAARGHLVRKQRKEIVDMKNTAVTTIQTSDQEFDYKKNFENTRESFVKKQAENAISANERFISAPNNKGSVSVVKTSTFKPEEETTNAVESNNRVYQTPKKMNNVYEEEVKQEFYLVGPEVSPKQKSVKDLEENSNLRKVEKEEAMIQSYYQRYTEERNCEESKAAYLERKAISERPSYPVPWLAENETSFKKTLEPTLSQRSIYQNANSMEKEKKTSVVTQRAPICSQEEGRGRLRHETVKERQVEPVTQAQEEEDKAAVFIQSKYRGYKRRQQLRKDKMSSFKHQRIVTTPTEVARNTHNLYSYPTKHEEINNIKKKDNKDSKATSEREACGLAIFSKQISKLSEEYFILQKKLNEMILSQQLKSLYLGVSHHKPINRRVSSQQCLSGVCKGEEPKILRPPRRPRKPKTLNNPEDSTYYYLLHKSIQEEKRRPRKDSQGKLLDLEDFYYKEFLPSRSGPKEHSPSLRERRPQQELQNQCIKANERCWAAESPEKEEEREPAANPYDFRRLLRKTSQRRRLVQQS

Compound: O=C(NOC[C@H](O)CO)c1ccc(F)c(F)c1Nc1ccc(I)cc1F
- % of control [1]: 100%

Compound: CNC(=O)Nc1ccc(-c2nc(N3CC4CCC(C3)O4)c3cnn(C4CCC5(CC4)OCCO5)c3n2)cc1
- % of control [2]: 75%

Compound: CCN(CC)CCCCNc1ncc2cc(-c3cc(OC)cc(OC)c3)c(NC(=O)NC(C)(C)C)nc2n1
- % of control [3]: 100%

Compound: CC[C@@H]1[C@H](F)C(=O)N[C@@H]1COc1nccc2cc(C(N)=O)c(OC)cc12 [ZIMLOVISERTIB]
- % of inhibition [4]: -1.8%
- % of inhibition [5]: 7.2%

Compound: C=CC(=O)Nc1cccc(C(=O)Nc2ccc(Nc3cc(-c4[nH]c(SC)nc4C)ccn3)cc2)c1
- % of control [6]: 88%

Compound: Cc1cnc(Nc2ccc(F)cc2Cl)nc1-c1c[nH]c(C(=O)N[C@H](CO)c2cccc(Cl)c2)c1
- % of inhibition [7]: 1%

Compound: COc1cc(N(C)c2ccnc3ccc(C(F)(F)F)cc23)cc(OC)c1OC
- % binding [8]: 100%

Compound: CCC(=O)N1CCN(c2ccc(-n3c(=O)ccc4cnc5ccc(-c6cnc7ccccc7c6)cc5c43)cc2C(F)(F)F)CC1
- % of control [9]: 100%

Compound: N#Cc1cccc(-c2c[nH]c3ncnc(N4CCOCC4)c23)c1
- % of control [10]: 100%
